# Measurements published in patent US11555031B2, “Compounds and methods for regulating insulin secretion” (The Broad Institute, Inc., priority 2017, dated 2023).
# “Also recorded” adds a separate entry of the source.
# Legend:
# [1] = tested on: Mouse MING insulinoma cells; test: Calcium influx assay (Fluo-4, FLIPR Tetra); format: cell-based
# Experimental: Mouse MING insulinoma cells were cultured in DMEM medium supplemented with 10% FBS, 100 U/mL penicillin, 100 μg/mL streptomycin, and 55 μM β-mercaptoethanol. Two days prior to the experiment, cells were seeded in 384-well clear-bottom microplates at 17,500 cells/well. For calcium imaging, microplates were washed three times with Hanks' Balanced Salt Solution (HBSS, containing Ca^2+/Mg^2+) using the CyBio Well vario plate washer. Cells were loaded with 2 μM of the calcium indicator Fluo-4 for 1 hour at 37° C. in Krebs-Ringer buffer (KRB) with 3 g/L glucose. After dye loading, the cells were washed again with HBSS and incubated in KRB with 0.5 g/L glucose for 30 minutes at 37° C. (glucose starvation conditions). After glucose starvation, microplates were transferred to FLIPR Tetra, where an automated 384-well dispensing unit added glucose (glucose stimulation conditions) together with Compound 8. Positive control measurements (“+CNT”) were performed in wells with ionomycin to prompt calcium influx without the presence of glucose. Negative control measurements (“−CNT”) were also performed in wells with Compound 8 present in and without glucose. All wells were read simultaneously at 1 Hz intervals. FIG. 20 illustrates the fold increase of measured calcium over baseline measurements performed in the absence of glucose. […] Without wishing to be bound by theory, it is believed that insulin secretagogues acts between KATP channels stimulated by glucose, and the calcium channels that induce insulin secretion.
# [2] = Plasma stability, human; format: in vitro ADME
# Experimental: Measurements were performed on human, mouse (CD-1) and rat (SD) microsomes to determine the t1/2, the plasma protein binding (“PPB”) and the plasma stability (“PS”).
# [3] = biological target: T1, pancreatic glucokinase (Homo sapiens, UniProt P35557); test: Glucokinase activation assay (ATP level); format: biochemical; settings: ATP level readout; GK-A positive control
# T1 sequence (P35557 1-465): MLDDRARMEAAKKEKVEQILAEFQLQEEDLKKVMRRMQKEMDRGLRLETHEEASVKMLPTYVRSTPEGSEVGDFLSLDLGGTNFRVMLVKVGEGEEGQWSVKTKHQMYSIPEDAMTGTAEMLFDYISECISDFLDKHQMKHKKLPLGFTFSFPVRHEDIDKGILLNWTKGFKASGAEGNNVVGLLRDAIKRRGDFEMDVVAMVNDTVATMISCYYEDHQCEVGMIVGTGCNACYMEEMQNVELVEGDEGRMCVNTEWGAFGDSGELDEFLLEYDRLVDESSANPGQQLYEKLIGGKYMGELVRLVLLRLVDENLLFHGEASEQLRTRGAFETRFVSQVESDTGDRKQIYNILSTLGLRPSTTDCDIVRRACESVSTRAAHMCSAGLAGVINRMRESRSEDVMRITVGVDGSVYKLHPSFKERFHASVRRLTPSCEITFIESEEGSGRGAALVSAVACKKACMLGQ
# Text: FIG. 11 depicts the lack of effect of Compound 8 on glucokinase activity in cells treated with the indicated compounds. The assay is based on the measurement of ATP level. In presence of GK we observe a reduction of level of ATP with respect to the negative control (DMSO).
# To rule out the possibility of Compound 8 acting as a glucokinase agonist, another well-established mechanism of augmenting insulin secretion, the compound was subjected to a glucokinase activation assay (FIG. 11).
# [4] = tested on: alpha-TC-1-6; test: Luminescent glucagon secretion assay in alpha-cell line; format: cell-based; settings: compared with DMSO negative control
# Experimental: FIG. 10 depicts the quantification of α-cell secretory activity in cells treated with DMSO, KCl, or Compound 8, using a luminescent assay for glucagon secretion.
# To investigate the cell-type specificity of the compound, and to exclude the possibility that Compound 8 acts as a generic secretagogue, the compound was tested on secretion from a rodent alpha-cell line, “alpha-TC-1-6,” using a luciferase reporter for glucagon secretion that mirrors the insulin secretion assay (FIG. 10).
# [5] = tested on: IP-1; test: IP-1 secondary messenger level in treated cells; format: cell-based; settings: treated cells (data not shown)
# Text: Further investigation into Compound 8 included measuring levels of the secondary messengers cAMP (FIG. 9) and IP-1 (not shown) in treated cells, as compounds that increase these secondary messengers are known to augment insulin secretion, though often in ways that are not beta-cell specific.
# [6] = Microsome t1/2, rat; format: in vitro ADME; settings: Rat (SD) microsomes
# Experimental: The pharmacokinetic activity profile of Compound 8 was assessed by various standard in vitro measurements. Measurements were performed on human, mouse (CD-1) and rat (SD) microsomes to determine the t1/2, the plasma protein binding (“PPB”) and the plasma stability (“PS”).
# [7] = tested on: dissociated human islets; test: Insulin secretion from dissociated human islets, insulin ELISA; format: cell-based
# Experimental: Forskolin is included as a positive control.
# Human islets were obtained through the Integrated Islet Distribution Program. Islets were maintained and dissociated in 96-well format as described (Walpita et al., J Biomol Screen 17: 509-518 2012). To test compounds for their effects on insulin secretion, the dissociated islets were washed gently in KRB and preincubated for 1 hr at 37° C. in KRB with 2.8 mM glucose. The cells were then washed twice with zero-glucose KRB and placed in 100 μl of fresh KRB with varied glucose concentrations plus compounds. After a 1 hr incubation at 37° C., the supernatant was removed, and insulin concentration was measured by ELISA (Mercodia) according to the manufacturer's instructions.
compound,measurement,setting,value
Cc1cccc(NC(=O)c2ccc(OCc3c(C)noc3C)cc2)c1C [Compound 8],calcium influx in β-cells in the presence of glucose,"[1]; glucose stimulation conditions (16.7 mM glucose), 1 μM, 10 μM",does promote calcium influx
same,dose dependence of calcium influx in beta cells,[1]; only in the presence of glucose,dose dependent response
same,calcium influx in β-cells in the absence of glucose,[1]; without glucose,does not invoke a calcium influx
same,PS,[2],106.2 % remaining
same,glucokinase activation,[3],did not show any significant activation effect; also recorded: no change in assay signal
same,alpha-cell secretory activity (luciferase reporter for glucagon secretion),[4],not to augment luciferase secretion; also recorded: insignificant change from DMSO negative control
same,IP-1 level,[5],did not increase levels
same,half-life,[6],3.62 h
same,"insulin secretion, human islets from nondiabetic donors",[7]; normal donors,significant increase in glucose-dependent insulin secretion; also recorded: dose-dependent effect
same,"insulin secretion, human islets from type 2 diabetic donors",[7]; type 2 diabetes donors,significant increase in glucose-dependent insulin secretion; also recorded: increases insulin secretion
